Assay results: publication PMC8712301, “Novel CYP11B-ligand [^123/131I]IMAZA as promising theranostic tool for adrenocortical tumors: comprehensive preclinical characterization and first clinical experience” (European Journal of Nuclear Medicine and Molecular Imaging, 2021)
Like-named read-outs stand apart in the source and are kept apart here.

Tests used:
[1] = biological target: T1, human CYP11B1 (Homo sapiens, UniProt P15538); experiment: Inhibition of CYP11B1 in stably transfected Y1-hsCyp11B1 cells; format: cell-based
T1 construct: expressed in transfected cells; host or cells: murine adrenocortical cancer cell line Y1 (Y1-hsCyp11B1, stably transfected)
T1 sequence (P15538 25-503): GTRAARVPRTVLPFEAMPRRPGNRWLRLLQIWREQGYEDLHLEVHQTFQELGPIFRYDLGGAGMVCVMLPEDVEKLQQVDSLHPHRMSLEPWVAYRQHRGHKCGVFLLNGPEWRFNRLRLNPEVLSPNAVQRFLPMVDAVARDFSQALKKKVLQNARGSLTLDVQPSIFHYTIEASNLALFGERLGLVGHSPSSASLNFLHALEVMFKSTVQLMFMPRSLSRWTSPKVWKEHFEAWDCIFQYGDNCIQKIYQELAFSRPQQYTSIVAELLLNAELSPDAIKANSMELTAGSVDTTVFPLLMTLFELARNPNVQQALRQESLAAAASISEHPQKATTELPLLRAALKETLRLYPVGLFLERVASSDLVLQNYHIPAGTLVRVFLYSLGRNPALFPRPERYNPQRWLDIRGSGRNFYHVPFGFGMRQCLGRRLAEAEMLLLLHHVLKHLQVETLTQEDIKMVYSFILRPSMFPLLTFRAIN
Description: (§1) The human adrenocortical cell line NCI-H295 and the murine adrenocortical cancer cell line Y1 transfected with either human CYP11B1 or CYP11B2 were used for determination of IC50 values as already described.
(§2) IC50 values were calculated from all values using the program GraphPad Prism5®. All results are expressed as mean ± standard deviation.

[2] = biological target: T2, human CYP11B2 (Homo sapiens, UniProt P19099); experiment: Inhibition of CYP11B2 in stably transfected Y1-hsCyp11B2 cells; format: cell-based
T2 construct: expressed in transfected cells; host or cells: murine adrenocortical cancer cell line Y1 (Y1-hsCyp11B2, stably transfected)
T2 sequence (P19099 25-503): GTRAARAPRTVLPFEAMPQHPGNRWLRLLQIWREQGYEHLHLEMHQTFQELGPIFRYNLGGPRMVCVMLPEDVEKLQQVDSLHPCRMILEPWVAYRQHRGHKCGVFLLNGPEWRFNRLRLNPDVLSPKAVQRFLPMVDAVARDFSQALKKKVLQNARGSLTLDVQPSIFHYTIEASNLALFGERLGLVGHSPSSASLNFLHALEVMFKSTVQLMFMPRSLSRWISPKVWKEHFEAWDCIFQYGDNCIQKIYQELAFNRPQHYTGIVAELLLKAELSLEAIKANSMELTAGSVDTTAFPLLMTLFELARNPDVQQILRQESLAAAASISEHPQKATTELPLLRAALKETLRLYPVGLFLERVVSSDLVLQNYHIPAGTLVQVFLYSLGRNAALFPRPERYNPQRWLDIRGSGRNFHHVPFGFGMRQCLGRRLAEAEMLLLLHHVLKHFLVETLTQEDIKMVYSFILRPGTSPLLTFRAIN
Description: as §1, §2

[3] = Metabolic inactivation by human liver microsomes in vitro (radio-HPLC); format: in vitro ADME; conditions: for Metabolic stability compared with [125I]IMTO: radio-HPLC; for half-life at 0.17 MBq/ml: human, pH 7.2, 125I-labeled compound, liver microsomes 0.2 mg/ml, NADPH, 37 °C, mean ± S.D., read-out: In vitro T1/2 in human liver microsomes
Description: Metabolic degradation was determined by co-incubation of the tracers with human liver microsomes (Sigma, M0317). Experiments were conducted in triplicates. Incubation mixtures consisted of liver microsomes (0.2 mg/ml), the respective ^125I-labeled compound (0.1 MBq), MgCl2 (3.3 mM), and NADPH (1.3 mM) in a total volume of 0.6 ml K3PO4 puffer (25 mM, pH 7.2). The reaction was started with the addition of NADPH and incubated at 37 °C. At predefined time points, aliquots were removed, and the reaction was terminated by adding 160 µL ice-cold methanol. After centrifugation (5000 × g, 4 °C for 4 min), the supernatant was analyzed by radio-HPLC (see experimental details and Supplementary Fig. 1 in Supplement).

[4] = test system: NCI-H295 cells; experiment: Steroid secretion in NCI-H295 cells after 48-h incubation; format: cell-based, human; conditions: for Production of the investigated hormones: higher concentrations; for Upstream steroids 17-OH-progesterone and androstenedione: lower concentrations 0.1-10 nM
Description: as §1
Fig. 2 Steroid secretion in NCI-H295 cells after 48-h incubation with IMTO, IMAZA, 3-tetrahydrofurylester, and 2,2-difluoroethylester (0.1–10,000 nM). NCI-H295 cells were incubated for 48 h with the four compounds. Each experiment was performed in triplicates. At the end of the incubation period, steroid hormones (cortisol, aldosterone, 17-OH-P, and androstenedione) were determined in the cell supernatant by commercially available assays

[5] = Lipophilicity estimated from HPLC retention times
[6] = test system: advanced ACC; experiment: Diagnostic imaging and biokinetics with [123I]IMTO and [123I]IMAZA in patients with advanced ACC; format: in vivo, human; conditions: kinetics recalculated for 131I from 123I diagnostics in patients
Description: Three patients (#1, #2, and #3) were investigated by [^123I]IMAZA (administered doses, 117, 163, and 182 MBq, respectively) and subsequently by [^123I]IMTO (176, 169, and 146 MBq, respectively). The time interval between the imaging studies was at least 5 days. Scintigraphic imaging was performed using a Siemens Symbia dual-head gamma camera equipped with medium-energy parallel-hole collimators. Activity concentration was measured in whole blood samples drawn at 2 min, 5 min, 15 min, 1 h, 2.5 h, 5 h, and 23 h after the administration. Plasma activity was analyzed in patient #1.

[7] = test system: metastatic ACC; experiment: Dosimetry and endoradiotherapy with [131I]IMAZA in a patient with metastatic ACC; format: in vivo, human; conditions: patient #1, derived from diagnostics with [123I]IMTO
Excerpt: Patient #1 had experienced disease progression with a more than fourfold increase in their dominant lesions within only 4 months after a phase of disease stabilization after standard treatment with mitotane and eight courses of combination chemotherapy with etoposide, doxorubicin, and cisplatin. They received therapeutic doses with 28.2 GBq [^131I]IMAZA 1 month and with 30.5 GBq [^131I]IMAZA 7 months after the evaluation with [^123I]IMAZA. Prior to the first treatment, the absorbed dose to the blood was measured with a tracer activity of 72 MBq [^131I]IMAZA as a surrogate for the exposure of the dose-limiting organ, the red bone marrow. The absorbed dose to the blood was estimated from assessments of the activity kinetics in total body and blood up to 48 h when the mean activity concentrations had dropped to 5% of the values at 5 min after the administration in the total body and to 1% in the blood. During therapy, the total body activity retention was measured with a survey meter in the ceiling over the patient’s bed. Gamma camera whole body scans accompanied by blood sampling were acquired starting 4 days post-administration after the first and 2 days after the second therapy until dismissal. SPECT/CT imaging was performed after 4 and 5 days, respectively.
Tumor evaluation was performed by [^18F]FDG PET/CT at baseline and 2, 5, 8, 11, 14, and 21 months after administration of the first treatment dose. Subsequently, the patient declined further follow-up imaging or additional therapeutic interventions.

[8] = test system: metastatic ACC; experiment: as above; format: in vivo, human; conditions: patient #1, derived from diagnostics with [123I]IMTO; remark: listed apart in the source
[9] = test system: advanced ACC; parameters: method as in PMID 15898346, PMID 29452402; conditions: advanced ACC ref 10, 11; cited from earlier work

For `C[C@H](c1ccc(I)cc1)n1cncc1C(=O)OC1CCOC1` (stereo partly drawn) [Compound 3, (R)-1-[1-(4-Iodophenyl)ethyl]-1H-imidazole-5-carboxylic acid 3-tetrahydrofurylester], the IC50 [1] was 5.3 ± 5.9 nM, the IC50 [2] was 2.9 ± 1.6 nM and the “Metabolic stability compared with [125I]IMTO” value ([3]; human liver microsomes) was “nearly equal or even better metabolic stability”. The half-life at 0.17 MBq/ml [3] was 7.4 ± 2.8 min, the “Production of the investigated hormones” value [4] was “completely stopped” and the “Upstream steroids 17-OH-progesterone and androstenedione” value [4] was “accumulation of the upstream steroids 17-OH-progesterone and androstenedione was observed”. For the same molecule, the “Lipophilicity compared with IMTO” value [5] was “comparable”.

For `C[C@H](c1ccc(I)cc1)n1cncc1C(=O)N1CCC1` [Compound 5, (R)-1-[1-(4-Iodophenyl)ethyl]-1H-imidazole-5-carboxylic acid azetidinylamide], the IC50 ([1]; stably transfected Y1-hsCyp11B1 cells, substrate deoxycortisol (1 µM), mean of at least three experiments in duplicates, read-out: IC50 CYP11B1) was 3.2 ± 0.1 nM, the IC50 ([2]; stably transfected Y1-hsCyp11B2 cells, substrate 11-deoxycorticosterone (1 µM), mean of at least three experiments in duplicates, read-out: IC50 CYP11B2) was 1.2 ± 0.1 nM and the half-life at 0.17 MBq/ml ([3]; human liver microsomes) was 26.1 ± 5.5 min. For the same molecule, the “Production of the investigated hormones” value [4] was “completely stopped”, the “Upstream steroids 17-OH-progesterone and androstenedione” value [4] was “accumulation of the upstream steroids 17-OH-progesterone and androstenedione was observed” and the “Lipophilicity compared with IMTO” value [5] was “lower”.

For `C[C@H](c1ccc(I)cc1)n1cncc1C(=O)O` [Compound 2, (R)-1-[1-(4-Iodophenyl)ethyl]-1H-imidazole-5-carboxylic acid], the IC50 [2] was 611 ± 1040 nM and the melting point was > 250 °C (dec.).

In the case of `COC(=O)c1cncn1C(C)c1ccc([131I])cc1` (stereo not shown) [[^131I]IMTO], the “Mean blood absorbed dose” value [6] is reported as 0.11 Gy/GBq, the Blood absorbed dose [7] is reported as 0.17 Gy/GBq and the “Residence time per liter of whole blood” value [8] is reported as 0.55 h.

For `Clc1ccc(C(c2ccccc2Cl)C(Cl)Cl)cc1` (stereo not shown) [mitotane], the Response rate [9] is given as at most 24%.

`COC(=O)c1cncn1[C@H](C)c1ccc(I)cc1` [Compound 1, (R)-1-[1-(4-Iodophenyl)ethyl]-1H-imidazole-5-carboxylic acid methyl ester] gave a half-life at 0.17 MBq/ml ([3]; human liver microsomes) of 7.3 ± 3.6 min and a melting point of 72 to 74 °C.

With `C[C@H](c1ccc(I)cc1)n1cncc1C(=O)OCC(F)F` [Compound 4, (R)-1-[1-(4-Iodophenyl)ethyl]-1H-imidazole-5-carboxylic acid 2,2-difluoroethylester] the IC50 [1] was 0.3 ± 0.4 nM, the IC50 [2] was 4.5 ± 0.5 nM and the “Metabolic stability compared with [125I]IMTO” value ([3]; human liver microsomes) was “nearly equal or even better metabolic stability”. For the same molecule, the half-life at 0.17 MBq/ml [3] was 7.5 ± 0.87 min, the “Production of the investigated hormones” value [4] was “completely stopped” and the “Upstream steroids 17-OH-progesterone and androstenedione” value [4] was “accumulation of the upstream steroids 17-OH-progesterone and androstenedione was observed”. For the same molecule, the “Lipophilicity compared with IMTO” value [5] was “comparable”.
